Consider 2 molecules from patent US5124253A (Medisense, Inc., priority 1988, dated 1992).

For series [1] the following is noted: cited from earlier work.
The test system of series [2] is bovine liver alkaline phosphatase. As to conditions: particularly isozyme from bovine liver; cited from earlier work.
Series [3] in a line: cyclic voltammetry of substrate and product. The class given is physicochemical. The text has this: Typically, in the test element, the enzyme and the substrate are in separate carbon-based layers. The respective carbon mixtures are applied to a conductive track of a support, for example in the close proximity of a reference electrode mixture connected to a second track. In this way, a miniaturized sensor is produced which is capable of working with a small sample of blood bridging the electrode areas. The mixtures are suitably applied by screen printing. Suitable enzymes and suitable substrates can be determined by routine experimentation. Bovine liver alkaline phosphatase is the preferred enzyme, and p-aminophenyl phosphate is the preferred substrate. Other candidate substrates include, for example naphthyl phosphate, and 4-ferrocenylaminophenyl phosphate. […] Furthermore the electrochemistry of p-aminophenol is in a potential region where there would be minimal interference from endogenous blood components.
Cyclic voltammograms of p-aminophenyl phosphate before and after incubation with alkaline phosphatase are shown in FIGS. 3 and 4, the lower voltammogram corresponding to post-incubation.

Where “and” joins values, the source holds several entries; their conditions need not be identical. Equal values may be shown once. Bounds are passed on as bounds.

As for `Cn1c(=O)c2[nH]cnc2n(C)c1=O` [theophylline], the “levels encountered in cases of toxicity” value in series [1] was ≤ 60 μg/ml and ≤ 330 μM. Moreover, the “inhibition of alkaline phosphatase isozymes” value in series [2] is listed as “very potent inhibitor”.

`Nc1ccc(O)cc1` [p-aminophenol]: the “E°' of reversible wave” value in series [3] was “about -65 mV”.
